Experimental data reported in patent US9833497B2, “Human originated EGF domain proteins and use of the same” (CHENGDU SOURCEBIO LIMITED-LIABILITY COMPANY, priority 2013, dated 2017).

What was measured:
Format in all cases: cell-based
[1] = tested on: Aeromonas hydrophila; experiment: MIC against Gram-negative bacteria: Aeromonas hydrophila; conditions: for MIC: A. hydrophila
Summary of the method: (§1)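 Read-out is absence of bacterial growth, with MIC set at the lowest recombinant protein concentration achieving it. Bacteria, pre-grown in LB to McFarland 0.5 and resuspended, were exposed at 5×10^5 CFU/mL to two-fold diluted human EGF domain proteins in triplicate at 37° C, 175 rpm.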

[2] = tested on: E. coli BL21; experiment: MIC against Gram-negative bacteria: E. coli BL21
Summary of the method: as §1

[3] = tested on: Serratia marcescens; experiment: MIC against Gram-negative bacteria: Serratia marcescens; conditions: for MIC: S. marcescens
Summary of the method: as §1

[4] = tested on: Enterobacter cloacae; experiment: MIC against Gram-negative bacteria: Enterobacter cloacae; conditions: for MIC: E. cloacae
Summary of the method: as §1

[5] = tested on: E. coli DH5α; experiment: Antibacterial activity: MIC and growth curve against E. coli DH5α in 96-well plate; conditions: minimal inhibitory concentration against E. coli DH5α; 96-well plate, 5×10^5 CFU/mL, 37° C., judged after 8 h
Summary of the method: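 MIC taken as lowest protein level with no bacterial growth, tracked by A600 every 30 min during 37 °C, 175 rpm culture. Two-fold protein series 50-12.5 μg/mL final, triplicate wells, against 5×10^5 CFU/mL of LB-washed mid-log cells.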

[6] = tested on: Proteus vulgaris; experiment: MIC against Gram-negative bacteria: Proteus vulgaris; conditions: for MIC: P. vulgaris
Summary of the method: as §1

[7] = tested on: Citrobacter diversus; experiment: MIC against Gram-negative bacteria: Citrobacter diversus; conditions: for MIC: C. diversus
Summary of the method: as §1

[8] = tested on: Klebsiella pneumonia; experiment: MIC against Gram-negative bacteria: Klebsiella pneumonia; conditions: for MIC: K. pneumonia
Summary of the method: as §1

[9] = tested on: Proteus mirabilis; experiment: MIC against Gram-negative bacteria: Proteus mirabilis; conditions: for MIC: P. mirabilis
Summary of the method: as §1

[10] = tested on: Moraxella catarrhalis; experiment: MIC against Gram-negative bacteria: Moraxella catarrhalis; conditions: for MIC: M. catarrhalis
Summary of the method: as §1

[11] = tested on: Pseudomonas aeruginosa; experiment: MIC against Gram-negative bacteria: Pseudomonas aeruginosa; conditions: for MIC: P. aeruginosa
Summary of the method: as §1

[12] = 10 h cultivation at 37° C., 5×10^5 CFU/mL, two-fold serial dilution
[13] = 96-well plate, 5×10^5 CFU/mL, 37° C., 10 h
[14] = 10 h cultivation at 37° C., 5×10^5 CFU/mL

## PRT1113 (HVDPCHSAPCARGRCHTHPDGRFECRCPPGFGGPRCR; listed as Homo sapiens)
[1]; [12]
  MIC A. hydrophila: 12.5 µg/mL
[2]; [12]
  MIC E. coli BL21: 12.5 µg/mL
[3]; [12]
  MIC S. marcescens: 25 µg/mL
[4]; [12]
  MIC E. cloacae: 12.5 µg/mL
[5]
  MIC: 12.5 µg/mL
[6]; [12]
  MIC P. vulgaris: 50 µg/mL
[7]; [12]
  MIC C. diversus: 50 µg/mL
[8]; [12]
  MIC K. pneumonia: 12.5 µg/mL
[9]; [12]
  MIC P. mirabilis: 25 µg/mL
[10]; [12]
  MIC M. catarrhalis: 12.5 µg/mL
[11]; [12]
  MIC P. aeruginosa: 12.5 µg/mL

## PRT975 (LVDWCSRQPCQNGGRCVQTGAYCLCPPGWSGRLCD; listed as Homo sapiens)
[1]; 10 h cultivation at 37° C.
  MIC: 50 µg/mL
[2]; E. coli BL21, 10 h cultivation at 37° C.
  MIC: 12.5 µg/mL
[3]; 10 h cultivation at 37° C.
  MIC: 25 µg/mL
[4]; 10 h cultivation at 37° C.
  MIC: 25 µg/mL
[5]
  MIC: 25 µg/mL
[6]; 10 h cultivation at 37° C.
  MIC: 12.5 µg/mL
[7]; 10 h cultivation at 37° C.
  MIC: 12.5 µg/mL
[8]; 10 h cultivation at 37° C.
  MIC: 12.5 µg/mL
[9]; 10 h cultivation at 37° C.
  MIC: 50 µg/mL
[10]; 10 h cultivation at 37° C.
  MIC: 12.5 µg/mL
[11]; 10 h cultivation at 37° C.
  MIC: 50 µg/mL

## PRT1373 (STRSCPGGCRGRGQCLDGRCVCEDGYSGEDC; listed as Homo sapiens)
[1]; Aeromonas hydrophila, 5×10^5 CFU/mL, 10 h cultivation at 37° C.
  MIC against A. hydrophila: 12.5 µg/mL
[2]; E. coli BL21, 5×10^5 CFU/mL, 10 h cultivation at 37° C.
  MIC against E. coli BL21: 12.5 µg/mL
[3]; Serratia marcescens, 5×10^5 CFU/mL, 10 h cultivation at 37° C.
  MIC against S. marcescens: 12.5 µg/mL
[4]; Enterobacter cloacae, 5×10^5 CFU/mL, 10 h cultivation at 37° C.
  MIC against E. cloacae: 12.5 µg/mL
[5]
  MIC: 25 µg/mL
[6]; Proteus vulgaris, 5×10^5 CFU/mL, 10 h cultivation at 37° C.
  MIC against P. vulgaris: 50 µg/mL
[7]; Citrobacter diversus, 5×10^5 CFU/mL, 10 h cultivation at 37° C.
  MIC against C. diversus: 50 µg/mL
[8]; Klebsiella pneumonia, 5×10^5 CFU/mL, 10 h cultivation at 37° C.
  MIC against K. pneumonia: 12.5 µg/mL
[9]; Proteus mirabilis, 5×10^5 CFU/mL, 10 h cultivation at 37° C.
  MIC against P. mirabilis: 25 µg/mL
[10]; Moraxella catarrhalis, 5×10^5 CFU/mL, 10 h cultivation at 37° C.
  MIC against M. catarrhalis: 12.5 µg/mL
[11]; Pseudomonas aeruginosa, 5×10^5 CFU/mL, 10 h cultivation at 37° C.
  MIC against P. aeruginosa: 12.5 µg/mL

## PRT688 (DVDECQLFRDQVCKSGVCVNTAPGYSCYCSNGYYYHTQRLECI; listed as Homo sapiens)
[1]; [13]
  MIC A. hydrophila: 25 µg/mL
[2]; [13]
  MIC E. coli BL21: 12.5 µg/mL
[3]; [13]
  MIC S. marcescens: 50 µg/mL
[4]; [13]
  MIC E. cloacae: 12.5 µg/mL
[5]
  MIC: 25 µg/mL
[6]; [13]
  MIC P. vulgaris: 100 µg/mL
[7]; [13]
  MIC C. diversus: 50 µg/mL
[8]; [13]
  MIC K. pneumonia: 50 µg/mL
[9]; [13]
  MIC P. mirabilis: 50 µg/mL
[10]; [13]
  MIC M. catarrhalis: 12.5 µg/mL
[11]; [13]
  MIC P. aeruginosa: 25 µg/mL

## PRT1151 (QFASCENNPCGNGATCVPKSGTDIVCLCPYGRSGPLCT; listed as Homo sapiens)
[1]; [12]
  MIC A. hydrophila: 25 µg/mL
[2]; [12]
  MIC E. coli BL21: 12.5 µg/mL
[3]; [12]
  MIC S. marcescens: 12.5 µg/mL
[4]; [12]
  MIC E. cloacae: 25 µg/mL
[5]
  MIC: 25 µg/mL
[6]; [12]
  MIC P. vulgaris: 12.5 µg/mL
[7]; [12]
  MIC C. diversus: 12.5 µg/mL
[8]; [12]
  MIC K. pneumonia: 50 µg/mL
[9]; [12]
  MIC P. mirabilis: 50 µg/mL
[10]; [12]
  MIC M. catarrhalis: 25 µg/mL
[11]; [12]
  MIC P. aeruginosa: 25 µg/mL

## PRT438 (DIDECALGRHTCHAGQDCDNTIGSYRCVVRCGSGFRRTSDGLSCQ; listed as Homo sapiens)
[1]; [14]
  MIC: 12.5 µg/mL
[2]; E. coli BL21, 10 h cultivation at 37° C., 5×10^5 CFU/mL
  MIC: 12.5 µg/mL
[3]; [14]
  MIC: 50 µg/mL
[4]; [14]
  MIC: 50 µg/mL
[5]
  MIC: 25 µg/mL
[6]; [14]
  MIC: 12.5 µg/mL
[7]; [14]
  MIC: 50 µg/mL
[8]; [14]
  MIC: 12.5 µg/mL
[9]; [14]
  MIC: 50 µg/mL
[10]; [14]
  MIC: 12.5 µg/mL
[11]; [14]
  MIC: 50 µg/mL
